In brackets after ≈: the same amount, converted by molar mass.
Assays:
[1] = Enhanced solubility test for poorly water-soluble compounds; format: physicochemical; settings: 1.0 mg alone in 2.0 ml distilled water, sonicated for 1 minute
MCF-7 tumor cells = assay: In vitro antitumor activity, MTT assay, MCF-7; format: cell-based; settings: Homo sapiens, MCF7, 72 h treatment, conjugates in taxane molar equivalents
Protocol: (§1) In order to determine if the activity of the prepared intermediates and prepared conjugates, we evaluated their antitumor activities by using MTT assay.
(§2) All cell lines were maintained in a humidified atmosphere containing 5% CO2 at 37° C. in different media supplemented with 10% FBS, 100 U/ml penicillin, and 100 μg/ml streptomycin. MCF-7, NCI-H460 or OVCAR-3 tumor cells were seeded into a 96-well cell culture plate and incubated overnight. The 96-well culture plate was taken out from the incubator, and the conjugates or mixture of different compounds or polysaccharides were added into it. […] Three wells were set at each concentration. Blank control contained tumor cells in normal medium without any sample. After treatment for 72 h, 20 μL of 3-(4, 5-dimethylthiazole-2)-2,5-diphenyltetrazolium bromide (MTT) were added to each well and incubated for 4 hours at 37° C. […] The half-inhibitory concentration (IC50 value) of each compound or conjugate was calculated.

NCI-H460 tumor cells = assay: In vitro antitumor activity, MTT assay, NCI-H460; format: cell-based; settings: Homo sapiens, 72 h treatment, conjugates in taxane molar equivalents
Protocol: as §1, §2

[2] = test system: OVCAR-3 (drug resistance) tumor cells; assay: In vitro antitumor activity, MTT assay, OVCAR-3; format: cell-based; settings: Homo sapiens, 72 h, taxane molar equivalents, molar ratio of taxane to lipid (Paclitaxel:DHA) 1:0, 1:1, 1:2, 1:4 per row
Protocol: as §1
All cell lines were maintained in a humidified atmosphere containing 5% CO2 at 37° C. in different media supplemented with 10% FBS, 100 U/ml penicillin, and 100 μg/ml streptomycin. MCF-7, NCI-H460 or OVCAR-3 tumor cells were seeded into a 96-well cell culture plate and incubated overnight. The 96-well culture plate was taken out from the incubator, and the conjugates or mixture of different compounds or polysaccharides were added into it. The concentration of each compound or conjugate were set to 500 nM, 200 nM, 100 nM, 50 nM, 25 nM, 12.5 nM, 6 nM, 3 nM and 1 nM. Three wells were set at each concentration. Blank control contained tumor cells in normal medium without any sample. After treatment for 72 h, 20 μL of 3-(4, 5-dimethylthiazole-2)-2,5-diphenyltetrazolium bromide (MTT) were added to each well and incubated for 4 hours at 37° C. After the removal of the supernatant, MTT formazan was dissolved in 150 μl dimethyl sulfoxide (DMSO) and monitored using a microplate reader at a wavelength of 570 nm. The half-inhibitory concentration (IC50 value) of each compound or conjugate was calculated.

[3] = test system: metastatic malignant melanoma cancer; settings: patients with metastatic malignant melanoma cancer; Ann. Oncol., 2011; cited from earlier work
[4] = In vivo safety assay in xenograft nude mice: body weight and death; set-up: species or system BALB/c (nu/nu) mice; settings: whole experiment period; 8.0 mg/kg docetaxel or equimolar dose, i.v. once a week, 4 weeks
Protocol: BALB/c (nu/nu) mice (20±2 g, 4-6 weeks old) were housed under pathogen-free conditions. Cancer cells such MCF-7 and NCI-H460 5.0×10^6, suspended in 100 μl PBS, were subcutaneously inoculated into the lower right rank of the nude mice. When the tumor size reached 100-150 mm^3, the mice were divided randomly into different groups (n=6 in each group). The control group received the solvent only. […] The mice were treated for 4 weeks. After the administration, the mice are raised normally. The tumor volume and mouse body weight were measured on every 3 days.

[5] = literature report, drugbank.ca; cited from earlier work

Compound	observation of the compound alone in water [1]	IC50 (MCF-7 tumor cells) [nM]	IC50 (NCI-H460 tumor cells) [nM]	IC50 [2] [nM]	final survival rates versus dacarbazine group [3]	death of nude mice [4]	solubility in water (literature) [5] [µg/mL]
CC(=O)O[C@H]1C(=O)[C@@]2(C)[C@H]([C@H](OC(=O)c3ccccc3)[C@]3(O)C[C@H](OC(=O)[C@H](O)[C@@H](NC(=O)c4ccccc4)c4ccccc4)C(C)=C1C3(C)C)[C@]1(OC(C)=O)CO[C@@H]1C[C@@H]2O [Paclitaxel, paclitaxel]	undissolved powder floated over water surface was clearly observed	21.9 ± 1.1	17.9 ± 1.3	57.6 ± 6.3			
CO[C@H]1C(=O)[C@]2(C)[C@@H](OC)C[C@H]3OC[C@@]3(OC(C)=O)[C@H]2[C@H](OC(=O)c2ccccc2)[C@]2(O)C[C@H](OC(=O)[C@H](O)[C@@H](NC(=O)OC(C)(C)C)c3ccccc3)C(C)=C1C2(C)C [Cabazitaxel, cabazitaxel]		8.3 ± 0.5	7.1 ± 0.3				
CC/C=C\C/C=C\C/C=C\C/C=C\C/C=C\C/C=C/CCC(=O)O[C@@H](C(=O)O[C@H]1C[C@@]2(O)[C@@H](OC(=O)c3ccccc3)C3[C@](C)(C(=O)[C@H](OC(C)=O)C(=C1C)C2(C)C)[C@@H](O)C[C@H]1OC[C@@]31OC(C)=O)[C@@H](NC(=O)c1ccccc1)c1ccccc1 (stereo partly drawn) [DHA-paclitaxel]					no significant differences in final survival rates		
CC(=O)O[C@@]12CO[C@@H]1C[C@H](O)[C@@]1(C)C(=O)[C@H](O)C3=C(C)[C@@H](OC(=O)[C@H](O)[C@@H](NC(=O)OC(C)(C)C)c4ccccc4)C[C@@](O)([C@@H](OC(=O)c4ccccc4)[C@H]21)C3(C)C [Docetaxel, docetaxel]	undissolved powder floated over water surface was clearly observed	9.5 ± 0.2	6.7 ± 0.6			no death	1.27 (≈ 1.57 µM)
